Test results from PubChem BioAssay AID2124 (Sanford-Burnham Center for Chemical Genomics, 2009).
Results filed as inconclusive are left out. Calls of active or inactive are those of the source. The rule behind the calls is not given here; tested in MIN6 cells.

Test: cell-permeable autofluorescent compounds in GFP channel, dose response, artefact control, imaging, high-content imaging (AID 2124);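 note: cells exposed to compound for 48 hours before fixing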
Conditions: cells, GFP-channel autofluorescence, high-content imaging, at 10 µM; for z-score: stronger effect = higher value

SMILES | z-score | cell count [cells]
N#Cc1ccc(-c2ccccc2)nc1SCC(=O)c1cccc(Cl)c1 | -0.23 (inactive) | 3340
CC(=O)c1sc2nc(-c3cccs3)cc(C(F)(F)F)c2c1N | 0.17 | 3260
C(=C/c1nccc2c1[nH]c1ccccc12)/c1ccc2c(c1)OCO2 | 0.26 | 1910
CN(C)S(=O)(=O)Oc1cccc(C(=O)Nc2ccc([N+](=O)[O-])cc2)c1 | -0.33 (inactive) | 2460
COc1cccc2c(=O)n(CC(=O)Nc3cccc(F)c3)ccc12 | -0.33 (inactive) | 3120
CCOC(=O)CC1C(=O)NCCN1c1nc2ccc(C)cn2c(=O)c1/C=C1\SC(=S)N(CC(C)C)C1=O (configuration not stated) | 0.66 | 3220
CCCN1CC=C2C(C#N)=C(N)C(C#N)(C#N)C(c3cccc(OC)c3OC)C2C1 (configuration not stated) | 0.21 | 3050
CN(C)/C=C1/Nc2ccccc2C1=O | -0.36 (inactive) | 3060
Cc1ccc(S(=O)(=O)N2CCCC2C(=O)N(C)Cc2cccs2)cc1 (configuration not stated) | -0.39 (inactive) | 3120
CCS(=O)(=O)c1ccc2oc(SCC(=O)NC3CCCC(C)C3C)nc2c1 (configuration not stated) | -0.26 (inactive) | 2950
Cc1cccc2sc(NC(=O)C3CCCN(S(=O)(=O)c4cccc5nonc45)C3)nc12 (configuration not stated) | -0.28 (inactive) | 3130
Cn1c(=O)c(NC2CCCCC2)c2c3c(cccc31)C(=O)c1ccccc1-2 | 3.32 | 3050
COc1ccc(OC)c(C2=NOC(C(=O)NCC3CCCO3)C2)c1 (configuration not stated) | -0.39 (inactive) | 2830
CCOC(=O)CC1C(=O)NCCN1c1nc2ccc(C)cn2c(=O)c1/C=C1\SC(=S)N(C(C)CC)C1=O (configuration not stated) | -0.02 | 2960
O=C(Nc1ccc(C2CCCCC2)cc1)C1CCCN(c2ncccn2)C1 (configuration not stated) | -0.38 (inactive) | 2990
COc1ccc(/C=C(\C#N)C(=O)OCC(=O)Nc2c(C)cccc2C(C)C)cc1 | -0.39 (inactive) | 2950
CCOCCCNc1nc2c(C)cccn2c(=O)c1/C=C1\SC(=S)N(CC(C)C)C1=O | -0.38 (inactive) | 2900
C=CCSc1nnc(NC(=O)c2cccc(S(=O)(=O)N3CCOCC3)c2)s1 | -0.38 (inactive) | 2670
CN(C)c1ccc(/C=C2\SC(=S)N(Nc3ncc(C(F)(F)F)cc3Cl)C2=O)cc1 | 0.57 | 2530

SMILES | z-score | cell count [cells]
Cc1cc(C)c2nc(NNC(=O)c3cc(-c4cccs4)nc4ccccc34)sc2c1 | -0.33 (inactive) | 2740
CCN(CC)CCn1c(=S)[nH]c2ccc(Cl)cc2c1=O | -0.33 (inactive) | 2890
CCN1C(=O)/C(=C/C=C2\N(CC)c3cc(S(=O)(=O)N(C)C)ccc3N2c2ccccc2)SC1=S | 0.11 | 2840
COC1=CCC2([N+](=O)[O-])CN(CCO)CC1([N+](=O)[O-])C2 (configuration not stated) | -0.33 (inactive) | 3440
O=c1c([N+](=O)[O-])cccn1Cc1ccc(F)cc1Cl | -0.38 (inactive) | 2960
Cc1ccn2c(NC3CCCCC3)c(C)nc2c1 | -0.39 (inactive) | 2990
Cc1cccc(Oc2nccc(C(F)(F)F)c2C(=O)Nc2ccc(F)cc2F)c1 | -0.39 (inactive) | 3510
COc1cc2c3nnc(-c4ccccc4)c-3cn(Cc3ccccc3F)c2cc1OC | 3.78 | 770
COc1c2c(nc3ccccc13)OC(C(C)(O)COC(C)=O)C2 (configuration not stated) | -0.33 (inactive) | 2830
CCCCCCc1cc2cc(-c3nnc(-c4ccccc4OC)o3)c(=O)oc2cc1O | -0.21 (inactive) | 2630
COc1cccc(S(=O)(=O)NCc2ccc(C(=O)Nc3ccc(Cl)c(Cl)c3)cc2)c1 | -0.33 (inactive) | 2580
Cc1ccc(-n2c3c(c(=O)[nH]c2=O)C(C(F)(F)F)(C(F)(F)F)NC(=O)N3)cc1 | -0.33 (inactive) | 2850
CCOC(=O)c1nn(-c2ccc(Cl)cc2Cl)c(=N)c(C#N)c1C | 0.25 | 2790
Cc1nc2c(oc3ccccc32)c(=O)o1 | -0.33 (inactive) | 3020
CCCCc1ccc2[nH]cc(CCN)c2c1 | -0.38 (inactive) | 2320
CCCc1n[nH]c2c1C(=O)C(C(=O)OC)C(C)(C)C2 (configuration not stated) | -0.39 (inactive) | 3280
CSc1c(C#N)c(N)nc2sc(C(=O)c3ccc(Cl)c(Cl)c3)c(N)c12 | -0.28 (inactive) | 2770
CCCCNC(=O)/C(C#N)=c1\s/c(=C\c2ccccc2OC(F)F)c(=O)n1CCCOC | -0.37 (inactive) | 3260
CC(=O)Nc1sc(/C(C#N)=C/c2ccc(Cl)c(Cl)c2)nc1-c1ccc(C)cc1 | 1.08 | 2880

SMILES | z-score | cell count [cells]
N#C/C(=C/c1ccc(N2CCCCCC2)o1)c1ccc(Cl)cc1 | 0.94 | 277
Cc1ccc(CN=Cc2[nH]c3ccc(Br)c(Cl)c3c2O)cc1 | -0.33 (inactive) | 2930
COc1ccc(NC(=O)CSc2nnc(-c3cccs3)n2C)cc1OC | -0.39 (inactive) | 2880
c1ccc(-n2ncc3c(N4CCN(c5ccccn5)CC4)nc(N4CCCCCC4)nc32)cc1 | -0.38 (inactive) | 3020
CC(C)C(c1nnnn1C1CCCC1)N1CCOCC1 (configuration not stated) | -0.33 (inactive) | 3180
COc1ccc(C2C(C(=O)N3CCOCC3)CCC(=O)N2c2ccc(OC)cc2)cc1 (configuration not stated) | -0.26 (inactive) | 3020
CCN1C=CC2=C(C#N)C(N)C(C#N)(C#N)C(c3ccccc3C(F)(F)F)C2C1 (configuration not stated) | 0.77 | 2720
CNC(=O)C1CC(=O)N/C(=N/N=C(\C)c2cccs2)S1 (configuration not stated) | -0.38 (inactive) | 3440
CCN(CC)c1ccc(/C=N/c2sc3c(c2C#N)C2CCN3CC2)c(O)c1 | 1.45 | 2490
Nc1cccc2c1C(=O)N(C(=O)c1cccc(S(=O)(=O)N3CCCC3)c1)C2=O | -0.39 (inactive) | 3320
CNC(=O)c1ccc(-c2sc3nc(N4CCOCC4)c4c(c3c2N)CC(C)(C)OC4)o1 | -0.33 (inactive) | 2290
CC(C)(C)c1ccc(OCC(=O)Nc2ccc3c4c(cccc24)C(=O)NC3=O)cc1 | -0.31 (inactive) | 2490
CN(C)C(=O)CN(c1ccc2c(c1)OCO2)S(C)(=O)=O | -0.33 (inactive) | 2880
COc1ccc(NC2=Nc3ccccc3N3C2=Nc2c(c(C)nn2-c2ccc(C)cc2)C3c2cccnc2)cc1 (configuration not stated) | -0.31 (inactive) | 2790
OC(COc1cccc2ccccc12)CN1CCN(c2ccccc2Cl)CC1 (configuration not stated) | -0.39 (inactive) | 3270
O=[N+]([O-])c1ccc(N(c2ccccc2)c2ccccc2)cc1 | -0.32 (inactive) | 2510
Cc1cc(/C=N/n2cnnc2)c(C)n1-c1cccc(C(=O)O)c1 | -0.33 (inactive) | 2960
Cc1ccccc1-c1nnc(-c2ccc(Cl)cc2)o1 | -0.26 (inactive) | 2820
